Laboratory results reported in patent US20250206757A1 (GASHERBRUM BIO, INC., priority 2022, published 2025).

target: GLP-1 Receptor (Homo sapiens, UniProt P43220); assay: GLP-1R agonist cAMP stimulation assay (HEK293/GLP1R/CRE-LUC cells, HTRF cAMP dynamic 2 kit); format: cell-based; settings: HEK293/CRE-Luc cell line stably expressing the GLP-1 Receptor; 30 min incubation at 37° C.
Summary of the method: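 HEK293 cells stably expressing GLP-1R with CRE-Luc, 1000 cells/well in DPBS with 0.5 mM IBMX and 0.10% BSA, exposed to half-log compound dilutions for 30 min at 37 °C. cAMP measured by HTRF (665/615 nm) after 1 h at room temperature.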

Chain of GLP-1 Receptor (P43220 24-463): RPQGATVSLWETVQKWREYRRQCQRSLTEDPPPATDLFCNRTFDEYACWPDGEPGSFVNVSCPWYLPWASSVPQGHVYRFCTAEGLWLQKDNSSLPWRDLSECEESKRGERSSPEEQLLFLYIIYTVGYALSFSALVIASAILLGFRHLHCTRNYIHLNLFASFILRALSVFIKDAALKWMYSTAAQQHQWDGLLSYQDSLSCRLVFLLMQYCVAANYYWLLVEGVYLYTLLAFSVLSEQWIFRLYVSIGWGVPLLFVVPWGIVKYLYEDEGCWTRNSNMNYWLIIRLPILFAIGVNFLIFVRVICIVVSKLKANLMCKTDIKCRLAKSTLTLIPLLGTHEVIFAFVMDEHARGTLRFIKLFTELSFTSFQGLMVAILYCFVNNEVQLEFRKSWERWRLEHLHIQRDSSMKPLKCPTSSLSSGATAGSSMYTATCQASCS

Question: `Cc1nnc(-c2cc3c(nc(CN4CCc5cc(C(F)(F)F)c(OCc6ccc(Cl)cc6F)nc5C4)n3C[C@@H]3CCO3)s2)[nH]1` [Compound 60, 2-[(4-chloro-2-fluorophenyl)methoxy]-7-{[5-(5-methyl-4H-1,2,4-triazol-3-yl)-1-{[(2S)-oxetan-2-yl]methyl}-1H-thieno[2,3-d]imidazol-2-yl]methyl}-3-(trifluoromethyl)-5,6,7,8-tetrahydro-1,7-naphthyridine] was tested. Which EC50 did it give?
Answer: Its EC50 is 1 to 300 nM.

Question: Which EC50 does the source give for `Cc1nnc(-c2cc3nc(CN4CCc5cc(C(F)(F)F)c(OCc6ccc(Cl)cc6)nc5C4)n(C[C@@H]4CCO4)c3cn2)[nH]1` [Compound 61, 2-[(4-chlorophenyl)methoxy]-7-{[6-(5-methyl-4H-1,2,4-triazol-3-yl)-3-{1[(2S)-oxetan-2-yl]methyl}-3H-imidazo[4,5-c]pyridin-2-yl]methyl}-3-(trifluoromethyl)-5,6,7,8-tetrahydro-1,7-naphthyridine] here?
Answer: Its EC50 is less than 1 nM.

Question: With `Cc1nnc(-c2cc3nc(CN4CCc5cc(C(F)(F)F)c(OCc6ccc(Cl)cc6F)nc5C4)n(C[C@@H]4CCO4)c3cn2)[nH]1` [Compound 62, 2-[(4-chloro-2-fluorophenyl)methoxy]-7-{[6-(5-methyl-4H-1,2,4-triazol-3-yl)-3-{[(2S)-oxetan-2-yl]methyl}-3H-imidazo[4,5-c]pyridin-2-yl]methyl}-3-(trifluoromethyl)-5,6,7,8-tetrahydro-1,7-naphthyridine] as the compound, how does the EC50 read?
Answer: The EC50 was less than 1 nM.

Question: `Cc1nnc(-c2cc3nc(CN4CCc5cc(C(F)(F)F)c(OCc6c(F)cc(Cl)cc6F)nc5C4)n(C[C@@H]4CCO4)c3cn2)[nH]1` [Compound 63, 2-[(4-chloro-2,6-difluorophenyl)methoxy]-7-{[6-(5-methyl-4H-1,2,4-triazol-3-yl)-3-{[(2S)-oxetan-2-yl]methyl}-3H-imidazo[4,5-c]pyridin-2-yl]methyl}-3-(trifluoromethyl)-5,6,7,8-tetrahydro-1,7-naphthyridine] was tested. Which EC50 did it give?
Answer: Its EC50 is less than 1 nM.

Question: How did the EC50 turn out when `FC(F)(F)c1cc2c(nc1OCc1ccc(Cl)cc1)CN(Cc1nc3cc(-c4nnc[nH]4)ncc3n1C[C@@H]1CCO1)CC2` [Compound 64, 2-[(4-chlorophenyl)methoxy]-7-[(3-{[(2S)-oxetan-2-yl]methyl}-6-(4H-1,2,4-triazol-3-yl)-3H-imidazo[4,5-c]pyridin-2-yl)methyl]-3-(trifluoromethyl)-5,6,7,8-tetrahydro-1,7-naphthyridine] was run?
Answer: The EC50 was 1 to 300 nM.

Question: Which EC50 does the source give for `Fc1cc(Cl)ccc1COc1nc2c(cc1C(F)(F)F)CCN(Cc1nc3cc(-c4nnc(C5CC5)[nH]4)ncc3n1C[C@@H]1CCO1)C2` [Compound 65, 2-[(4-chloro-2-fluorophenyl)methoxy]-7-{[6-(5-cyclopropyl-4H-1,2,4-triazol-3-yl)-3-{1[(2S)-oxetan-2-yl]methyl}-3H-imidazo[4,5-c]pyridin-2-yl]methyl}-3-(trifluoromethyl)-5,6,7,8-tetrahydro-1,7-naphthyridine] here?
Answer: Its EC50 is less than 1 nM.

Question: Which EC50 does the source give for `CC(F)(F)c1nnc(-c2cc3nc(CN4CCc5cc(C(F)(F)F)c(OCc6ccc(Cl)cc6F)nc5C4)n(C[C@@H]4CCO4)c3cn2)[nH]1` [Compound 66, 2-[(4-chloro-2-fluorophenyl)methoxy]-7-({6-[5-(1,1-difluoroethyl)-4H-1,2,4-triazol-3-yl]-3-{[(2S)-oxetan-2-yl]methyl}-3H-imidazo[4,5-c]pyridin-2-yl}methyl)-3-(trifluoromethyl)-5,6,7,8-tetrahydro-1,7-naphthyridine] here?
Answer: Its EC50 is less than 1 nM.

Question: With `Cc1nnc(-c2cnc3c(c2)nc(CN2CCc4cc(C(F)(F)F)c(OCc5ccc(Cl)cc5F)nc4C2)n3C[C@@H]2CCO2)[nH]1` [Compound 67, 2-[(4-chloro-2-fluorophenyl)methoxy]-7-{[6-(5-methyl-4H-1,2,4-triazol-3-yl)-3-{[(2S)-oxetan-2-yl]methyl}-3H-imidazo[4,5-b]pyridin-2-yl]methyl}-3-(trifluoromethyl)-5,6,7,8-tetrahydro-1,7-naphthyridine] as the compound, how does the EC50 read?
Answer: Its EC50 is 1 to 300 nM.

Question: `Cc1nnc(-c2ccc3c(nc(CN4CCc5cc(C(F)(F)F)c(OCc6ccc(Cl)cc6)nc5C4)n3C[C@@H]3CCO3)c2F)[nH]1` [Compound 68, 2-[(4-chlorophenyl)methoxy]-7-{[4-fluoro-5-(5-methyl-4H-1,2,4-triazol-3-yl)-1-{[(2S)-oxetan-2-yl]methyl}-1H-1,3-benzodiazol-2-yl]methyl}-3-(trifluoromethyl)-5,6,7,8-tetrahydro-1,7-naphthyridine] was tested. Which EC50 did it give?
Answer: The EC50 was less than 1 nM.

Question: `N#Cc1cc2c(nc1OCc1c(F)cc(Cl)cc1F)CN(Cc1nc3cc(-c4nnc(C(F)F)[nH]4)ncc3n1C[C@@H]1CCO1)CC2` [Compound 69, 2-[(4-chloro-2,6-difluorophenyl)methoxy]-7-({6-[5-(difluoromethyl)-4H-1,2,4-triazol-3-yl]-3-{[(2S)-oxetan-2-yl]methyl}-3H-imidazo[4,5-c]pyridin-2-yl}methyl)-5,6,7,8-tetrahydro-1,7-naphthyridine-3-carbonitrile] was tested. Which EC50 did it give?
Answer: Its EC50 is less than 1 nM.

Question: Which EC50 does the source give for `N#Cc1cc2c(nc1OCc1c(F)cc(Cl)cc1F)CN(Cc1nc3cc(-c4noc(=O)[nH]4)ccc3n1C[C@@H]1CCO1)CC2` [Compound 70, 2-[(4-chloro-2,6-difluorophenyl)methoxy]-7-[(1-{[(2S)-oxetan-2-yl]methyl}-5-(5-oxo-4,5-dihydro-1,2,4-oxadiazol-3-yl)-1H-1,3-benzodiazol-2-yl)methyl]-5,6,7,8-tetrahydro-1,7-naphthyridine-3-carbonitrile] here?
Answer: The EC50 was less than 1 nM.

Question: Which EC50 does the source give for `N#Cc1cc2c(nc1OCc1c(F)cc(Cl)cc1F)CN(Cc1nc3cc(-c4nnc(C(F)(F)F)[nH]4)ncc3n1C[C@@H]1CCO1)CC2` [Compound 71, 2-[(4-chloro-2,6-difluorophenyl)methoxy]-7-[(3-{[(2S)-oxetan-2-yl]methyl}-6-[5-(trifluoromethyl)-4H-1,2,4-triazol-3-yl]-3H-imidazo[4,5-c]pyridin-2-yl)methyl]-5,6,7,8-tetrahydro-1,7-naphthyridine-3-carbonitrile] here?
Answer: Its EC50 is less than 1 nM.

Question: With `Fc1cc(Cl)ccc1COc1nc2c(cc1C(F)F)CCN(Cc1nc3cc(-c4nnc(C(F)(F)F)[nH]4)ncc3n1C[C@@H]1CCO1)C2` [Compound 72, 2-[(4-chloro-2-fluorophenyl)methoxy]-3-(difluoromethyl)-7-[(3-{[(2S)-oxetan-2-yl]methyl}-6-[5-(trifluoromethyl)-4H-1,2,4-triazol-3-yl]-3H-imidazo[4,5-c]pyridin-2-yl)methyl]-5,6,7,8-tetrahydro-1,7-naphthyridine] as the compound, how does the EC50 read?
Answer: The EC50 was less than 1 nM.

Question: Which EC50 does the source give for `FC(F)c1ccc(COc2nc3c(cc2C(F)(F)F)CCN(Cc2nc4cc(-c5nnc(C(F)(F)F)[nH]5)ncc4n2C[C@@H]2CCO2)C3)cc1` [Compound 73, 2-{[4-(difluoromethyl)phenyl]methoxy}-7-[(3-{[(2S)-oxetan-2-yl]methyl}-6-[5-(trifluoromethyl)-4H-1,2,4-triazol-3-yl]-3H-imidazo[4,5-c]pyridin-2-yl)methyl]-3-(trifluoromethyl)-5,6,7,8-tetrahydro-1,7-naphthyridine] here?
Answer: Its EC50 is less than 1 nM.

Question: For `FC(F)(F)c1nnc(-c2cc3nc(CN4CCc5cc(C(F)(F)F)c(OCc6ccc(Cl)cn6)nc5C4)n(C[C@@H]4CCO4)c3cn2)[nH]1` [Compound 74, 2-[(5-chloropyridin-2-yl)methoxy]-7-[(3-{[(2S)-oxetan-2-yl]methyl}-6-[5-(trifluoromethyl)-4H-1,2,4-triazol-3-yl]-3H-imidazo[4,5-c]pyridin-2-yl)methyl]-3-(trifluoromethyl)-5,6,7,8-tetrahydro-1,7-naphthyridine], which EC50 is on record?
Answer: The EC50 was less than 1 nM.

Question: With `N#Cc1ccc(COc2nc3c(cc2C(F)(F)F)CCN(Cc2nc4cc(-c5nnc(C(F)(F)F)[nH]5)ncc4n2C[C@@H]2CCO2)C3)c(F)c1` [Compound 75, 3-fluoro-4-[({7-[(3-{[(2S)-oxetan-2-yl]methyl}-6-[5-(trifluoromethyl)-4H-1,2,4-triazol-3-yl]-3H-imidazo[4,5-c]pyridin-2-yl)methyl]-3-(trifluoromethyl)-5,6,7,8-tetrahydro-1,7-naphthyridin-2-yl}oxy)methyl]benzonitrile] as the compound, how does the EC50 read?
Answer: Its EC50 is less than 1 nM.

Question: Which EC50 does the source give for `Fc1cc(Cl)ccc1COc1nc2c(cc1C(F)(F)F)CCN(Cc1nc3cc(-c4nnc(C(F)(F)F)[nH]4)ncc3n1C[C@H]1CCOC1)C2` [Compound 76, 2-[(4-chloro-2-fluorophenyl)methoxy]-7-[(3-{[(3R)-oxolan-3-yl]methyl}-6-[5-(trifluoromethyl)-4H-1,2,4-triazol-3-yl]-3H-imidazo[4,5-c]pyridin-2-yl)methyl]-3-(trifluoromethyl)-5,6,7,8-tetrahydro-1,7-naphthyridine] here?
Answer: The EC50 was 1 to 300 nM.

Question: How did the EC50 turn out when `Fc1cc(Cl)ccc1COc1nc2c(cc1C(F)(F)F)CCN(Cc1nc3cc(-c4nnc(C(F)(F)F)[nH]4)ncc3n1C[C@@H]1CCOC1)C2` [Compound 77, 2-[(4-chloro-2-fluorophenyl)methoxy]-7-[(3-{1[(3S)-oxolan-3-yl]methyl}-6-[5-(trifluoromethyl)-4H-1,2,4-triazol-3-yl]-3H-imidazo[4,5-c]pyridin-2-yl)methyl]-3-(trifluoromethyl)-5,6,7,8-tetrahydro-1,7-naphthyridine] was run?
Answer: Its EC50 is 1 to 300 nM.

Question: With `Fc1cc(Cl)ccc1COc1nc2c(cc1C(F)(F)F)CCN(Cc1nc3cc(-c4nnc(C(F)(F)F)[nH]4)ncc3n1C[C@H]1CCCO1)C2` [Compound 78, 2-[(4-chloro-2-fluorophenyl)methoxy]-7-[(3-{1[(2R)-oxolan-2-yl]methyl}-6-[5-(trifluoromethyl)-4H-1,2,4-triazol-3-yl]-3H-imidazo[4,5-c]pyridin-2-yl)methyl]-3-(trifluoromethyl)-5,6,7,8-tetrahydro-1,7-naphthyridine] as the compound, how does the EC50 read?
Answer: Its EC50 is 1 to 300 nM.

Question: `Fc1cc(Cl)ccc1COc1nc2c(cc1C(F)(F)F)CCN(Cc1nc3cc(-c4nnc(C(F)(F)F)[nH]4)ncc3n1C[C@@H]1CCCO1)C2` [Compound 79, 2-[(4-chloro-2-fluorophenyl)methoxy]-7-[(3-{1[(2S)-oxolan-2-yl]methyl}-6-[5-(trifluoromethyl)-4H-1,2,4-triazol-3-yl]-3H-imidazo[4,5-c]pyridin-2-yl)methyl]-3-(trifluoromethyl)-5,6,7,8-tetrahydro-1,7-naphthyridine] was tested. Which EC50 did it give?
Answer: Its EC50 is 1 to 300 nM.
